Values after ≈ are worked out from the molar mass of the structure shown. Values joined by “and” are separate entries in the source; they are usually repeats but may differ in a detail not shown here. Identical values can stand only once.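 Method: 48-hour compound exposure of cells in 96-well plates, five concentrations, linear interpolation of endpoints. GI50 = concentration required for 50% inhibition of growth. TGI marks complete inhibition of growth.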
Columns and labels:
Test in all cases: growth of human tumour cells (NCI), 48 h; in the data active = GI50 below about 0.43 µM; inactive = the rest
KM20L2 colon = system: KM20L2 colon
SF-295 CNS = system: SF-295 CNS
SK-MEL-28 melanoma = system: SK-MEL-28 melanoma
MALME-3M melanoma = system: MALME-3M melanoma
DMS 273 small cell lung = system: DMS 273 small cell lung
HCT-15 colon = system: HCT-15 colon
CAKI-1 renal = system: CAKI-1 renal
MDA-MB-435 = system: MDA-MB-435
MDA-MB-231 breast = system: MDA-MB-231 breast
MCF7 breast = system: MCF7 breast

C/C=C/C(=O)[O-].N.N.N.N.N.[Co+3].[O-][Cl+3]([O-])([O-])[O-]
> 100 µM: TGI (KM20L2 colon) | TGI (SF-295 CNS) | TGI (SK-MEL-28 melanoma) | TGI (MALME-3M melanoma) | TGI (DMS 273 small cell lung) | TGI (HCT-15 colon)
inactive: GI50 (KM20L2 colon) > 100 µM | GI50 (SF-295 CNS) > 100 µM | GI50 (SK-MEL-28 melanoma) > 100 µM | GI50 (MALME-3M melanoma) > 100 µM | GI50 (DMS 273 small cell lung) > 100 µM | GI50 (HCT-15 colon) > 100 µM

CNC(C)Cc1ccc(O)cc1 (configuration not stated)
> 100 µM: TGI (KM20L2 colon) | TGI (SF-295 CNS) | TGI (SK-MEL-28 melanoma) | TGI (MALME-3M melanoma) | TGI (DMS 273 small cell lung) | TGI (CAKI-1 renal) | TGI (HCT-15 colon)

COC(=O)C1=C(c2cc(OC)c(OC)c(OC)c2)O[C@H](c2ccc3c(c2)OCO3)[C@H]1COC(C)=O
> 100 µM: TGI (KM20L2 colon) | TGI (MALME-3M melanoma) | TGI (DMS 273 small cell lung) | TGI (CAKI-1 renal) | TGI (HCT-15 colon)
41 µM: TGI (SF-295 CNS)

Cc1ccc(C)c2c1CCc1cc3ccccc3nc1-2
> 100 µM: TGI (KM20L2 colon) | TGI (SF-295 CNS) | TGI (SK-MEL-28 melanoma) | TGI (MALME-3M melanoma) | TGI (CAKI-1 renal) | TGI (HCT-15 colon)

O=C(O)Cc1cc(=O)[nH]c2c1C(=O)CCC2
> 100 µM: TGI (KM20L2 colon) | TGI (SF-295 CNS) | TGI (SK-MEL-28 melanoma) | TGI (MALME-3M melanoma) | TGI (DMS 273 small cell lung) | TGI (HCT-15 colon)

Cc1cccc(O)c(=O)c1
> 100 µM: TGI (KM20L2 colon) | TGI (SF-295 CNS) | TGI (SK-MEL-28 melanoma) | TGI (MALME-3M melanoma) | TGI (DMS 273 small cell lung) | TGI (CAKI-1 renal) | TGI (HCT-15 colon)

COC(=O)c1nn(C(=N)c2ccc(Cl)cc2)c2c1CCCCC2
> 100 µM: TGI (KM20L2 colon) | TGI (SF-295 CNS) | TGI (SK-MEL-28 melanoma) | TGI (MALME-3M melanoma) | TGI (DMS 273 small cell lung) | TGI (CAKI-1 renal) | TGI (HCT-15 colon)

COC(=O)/C(=N/O)C(C(=O)OC)C(=O)C(=O)Nc1c(Cl)cc(C)cc1S(=O)(=O)O (configuration not stated)
> 100 µM: TGI (KM20L2 colon) | TGI (SF-295 CNS) | TGI (SK-MEL-28 melanoma) | TGI (MALME-3M melanoma) | TGI (CAKI-1 renal) | TGI (HCT-15 colon)
33.2 µM: TGI (DMS 273 small cell lung)

[N-]=[N+]=Nc1c(Br)c(=O)[nH]c(=O)n1COCCO
> 100 µM: TGI (SF-295 CNS) | TGI (SK-MEL-28 melanoma) | TGI (MALME-3M melanoma) | TGI (DMS 273 small cell lung) | TGI (CAKI-1 renal)

COc1cccc2ccc3c(c12)C(=O)OC31CCc2c(C)cccc21 (configuration not stated)
> 31.6 µM: TGI (KM20L2 colon) | TGI (DMS 273 small cell lung)
> 46.4 µM: TGI (SF-295 CNS) | TGI (SK-MEL-28 melanoma) | TGI (MALME-3M melanoma) | TGI (CAKI-1 renal) | TGI (HCT-15 colon)
41.9 µM: TGI (MCF7 breast)
> 100 µM: TGI (MDA-MB-435) | TGI (MDA-MB-231 breast)

CCCCN(CCCC)C(=O)C(=O)CC(=O)/C=C/c1ccccc1
> 100 µM: TGI (KM20L2 colon) | TGI (SF-295 CNS) | TGI (SK-MEL-28 melanoma) | TGI (MALME-3M melanoma) | TGI (DMS 273 small cell lung) | TGI (CAKI-1 renal) | TGI (HCT-15 colon)

Cc1c(N)nc(C(CC(N)=O)NCC(N)C(N)=O)nc1C(=O)NC(C(=O)NC(C)C(O)C(C)C(=O)NC(C(=O)NCCc1nc(-c2nc(C(=O)NCCCNCCCCN)cs2)cs1)C(C)O)C(OC1OC(CO)C(O)C(O)C1OC1OC(CO)C(O)C(OC(N)=O)C1O)c1cnc[nH]1 (configuration not stated)
2.38 µM: TGI (CAKI-1 renal)
12 µg/mL and 4.04 µM: TGI (SF-295 CNS)
inactive: GI50 (MDA-MB-435) 15.9 mg/L (≈ 11 µM) | GI50 (SF-295 CNS) 0.603 mg/L and 0.261 mg/L | GI50 (MCF7 breast) 3.08 mg/L (≈ 2.14 µM) | GI50 (SK-MEL-28 melanoma) 48 mg/L | GI50 (CAKI-1 renal) 0.845 mg/L and 2.94 mg/L | GI50 (HCT-15 colon) 1.92 mg/L
> 10 µM: TGI (KM20L2 colon) | TGI (SK-MEL-28 melanoma) | TGI (MALME-3M melanoma) | TGI (DMS 273 small cell lung) | TGI (HCT-15 colon)

COc1cc2c3c(c1OC)Oc1ccc(cc1)CC1c4c(cc(OC)c(OC)c4Oc4ccc(cc4)CC3N(C)CC2)CCN1C (configuration not stated)
36.1 µM: TGI (SF-295 CNS)
37.2 µM: TGI (DMS 273 small cell lung)
34.5 µM: TGI (MALME-3M melanoma)
34.2 µM: TGI (SK-MEL-28 melanoma)
> 100 µM: TGI (CAKI-1 renal)
45.2 µM: TGI (KM20L2 colon)

Cc1cc(Cl)ccc1NC(=O)CCCC(=O)C(C(=O)c1ccccc1)c1ccccc1 (configuration not stated)
> 100 µM: TGI (KM20L2 colon) | TGI (SF-295 CNS) | TGI (MALME-3M melanoma) | TGI (DMS 273 small cell lung) | TGI (CAKI-1 renal) | TGI (HCT-15 colon)

CC1=NN(C(=O)c2cc(Cl)cc([N+](=O)[O-])c2)C(=O)C1N=Nc1ccccc1C(=O)O (configuration not stated)
> 100 µM: TGI (SF-295 CNS) | TGI (SK-MEL-28 melanoma) | TGI (MALME-3M melanoma) | TGI (DMS 273 small cell lung) | TGI (CAKI-1 renal)

CCOC(=O)NC(=O)c1cn(C2OC(CO)C(O)C2O)c(=O)[nH]c1=O (configuration not stated)
> 100 µM: TGI (KM20L2 colon) | TGI (SF-295 CNS) | TGI (SK-MEL-28 melanoma) | TGI (MALME-3M melanoma) | TGI (DMS 273 small cell lung) | TGI (CAKI-1 renal) | TGI (HCT-15 colon)

COC(=O)C12C3C4C1C1C2C3C41C(=O)N(C(C)C)C(C)C (configuration not stated)
> 100 µM: TGI (KM20L2 colon) | TGI (SF-295 CNS) | TGI (SK-MEL-28 melanoma) | TGI (MALME-3M melanoma) | TGI (DMS 273 small cell lung) | TGI (HCT-15 colon)

CCOC(=O)/C(C#N)=C(N)/C(=N\Nc1cccc(C(F)(F)F)c1)C(=O)OCC
> 100 µM: TGI (KM20L2 colon) | TGI (SF-295 CNS) | TGI (SK-MEL-28 melanoma) | TGI (MALME-3M melanoma) | TGI (DMS 273 small cell lung) | TGI (CAKI-1 renal) | TGI (HCT-15 colon)

O=C(O)c1oc2cccc3c2c1CCC3
> 100 µM: TGI (SF-295 CNS) | TGI (SK-MEL-28 melanoma) | TGI (MALME-3M melanoma) | TGI (DMS 273 small cell lung) | TGI (HCT-15 colon)

Cc1ccc(SCC(O)=C2C(=O)CCCC2=O)cc1
> 100 µM: TGI (KM20L2 colon) | TGI (SF-295 CNS) | TGI (SK-MEL-28 melanoma) | TGI (MALME-3M melanoma) | TGI (DMS 273 small cell lung) | TGI (CAKI-1 renal) | TGI (HCT-15 colon)

— PubChem BioAssay (NCI)
